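These data come from cells grown in 96-well plates and exposed to compound for 48 hours at five concentrations. GI50 is the concentration that inhibits growth by half.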 The source made the active and inactive calls. Rule as the data show it: active = GI50 up to about 1.1 µM and inactive = higher.
Key:
Assay in all cases: NCI-60 cell line screen, 48 h
[1] = tested on: UO-31
[2] = tested on: CAKI-1
[3] = tested on: U-251
[4] = tested on: SR
[5] = tested on: K562
[6] = tested on: T47D
[7] = tested on: SW-620
[8] = tested on: SF-295
[9] = tested on: MCF7
[10] = tested on: IGROV-1
[11] = tested on: SNB-19
[12] = tested on: BT-549
[13] = tested on: NCI-H522
[14] = tested on: MDA-MB-231
[15] = tested on: COLO 205
[16] = tested on: MDA-N
[17] = tested on: HL-60
[18] = tested on: PC-3
[19] = tested on: SNB-75
[20] = tested on: SF-268

Measured: GI50

CC(C)C(Nc1ncnc2nc[nH]c12)C(=O)O (stereo not given)
inactive: [1] > 100 µM | [2] > 100 µM | [3] > 100 µM | [4] > 100 µM | [5] > 100 µM | [6] > 100 µM | [7] > 100 µM | [8] > 100 µM | [9] > 100 µM | [10] > 100 µM | [11] > 100 µM | [12] > 100 µM | [13] > 100 µM | [14] > 100 µM | [15] > 100 µM | [16] > 100 µM | [17] > 100 µM | [18] > 100 µM | [19] > 100 µM | [20] > 100 µM

CCOC(=O)/C=C(\C(=O)OCC)n1ccc(=O)n(Cc2cn(COCCOC(C)=O)nn2)c1=O
inactive: [1] 17.7 µM | [2] 8.67 µM | [3] 18.9 µM | [4] 21 µM | [5] 24 µM | [6] 24.3 µM | [7] 9.18 µM | [8] > 100 µM | [9] 17.1 µM | [10] 21.1 µM | [11] > 50.4 µM | [12] 17.8 µM | [13] 2.71 µM | [14] 20.2 µM | [15] 7.94 µM | [16] 35.2 µM | [17] 12.7 µM | [18] 20.3 µM | [19] > 42.7 µM | [20] 26.1 µM

COC(CNC(=O)C(C)NC(=O)CCc1ccccc1)OC (stereo not given)
inactive: [1] > 100 µM | [2] > 100 µM | [3] > 100 µM | [4] > 100 µM | [5] > 100 µM | [6] > 100 µM | [7] > 100 µM | [8] > 100 µM | [9] > 100 µM | [10] > 100 µM | [11] > 100 µM | [12] > 100 µM | [13] > 100 µM | [14] > 100 µM | [15] > 100 µM | [16] > 100 µM | [17] > 100 µM | [18] > 100 µM | [19] > 100 µM | [20] > 100 µM

C=C(c1nc2ccc(Cl)cc2[nH]c1=O)C(O)c1ccc(C(O)C(=O)c2nc3ccc(Cl)cc3[nH]c2=O)cc1 (stereo not given)
inactive: [1] > 91 µM | [2] > 100 µM | [3] > 100 µM | [4] 83.6 µM | [5] 49 µM | [6] > 100 µM | [7] > 100 µM | [8] > 100 µM | [9] > 100 µM | [10] > 68.2 µM | [11] > 100 µM | [12] > 100 µM | [13] 47.1 µM | [14] > 100 µM | [15] > 100 µM | [16] > 100 µM | [17] 5.04 µM | [18] 87.9 µM | [19] > 100 µM | [20] > 100 µM

Source: ChEMBL document CHEMBL1201862, “PubChem BioAssay data set” (2004)
